ChEMBL document CHEMBL3046484, “Fumigant toxicity of lemon eucalyptus oil constituents to acaricide-susceptible and acaricide-resistant Tetranychus urticae” (2011)

Columns and labels:
Assay type in all cases: functional
Tetranychus urticae [1] = test: Insecticidal activity against abamectin-resistant female Tetranychus urticae ART-53 (two-spotted spider mite) in kidney bean assessed as mortality in 3 cm disks measured after 24 hr exposure by vapour-phase mortality bioassay
Tetranychus urticae [2] = test: Insecticidal activity against pyridaben-resistant female Tetranychus urticae PRT-53 (two-spotted spider mite) in kidney bean assessed as mortality in 3 cm disks measured after 24 hr exposure by vapour-phase mortality bioassay
Tetranychus urticae [3] = test: Insecticidal activity against fenpropathrin-resistant female Tetranychus urticae FRT-53 (two-spotted spider mite) in kidney bean assessed as mortality in 3 cm disks measured after 24 hr exposure by vapour-phase mortality bioassay
Tetranychus urticae [4] = test: Insecticidal activity against chlorfenapyr-resistant female Tetranychus urticae CRT-53 (two-spotted spider mite) in kidney bean assessed as mortality in 3 cm disks measured after 24 hr exposure by vapour-phase mortality bioassay
Tetranychus urticae [5] = test: Insecticidal activity against acaricide-susceptible female Tetranychus urticae KST (two-spotted spider mite) in kidney bean assessed as mortality in 3 cm disks measured after 24 hr exposure by vapour-phase mortality bioassay

CC1=CC[C@@](O)(C(C)C)CC1
LC50 (Tetranychus urticae [1]): 38.7 microg/cm3 | LC50 (Tetranychus urticae [2]): 43.7 microg/cm3 | LC50 (Tetranychus urticae [3]): 40.8 microg/cm3 | LC50 (Tetranychus urticae [4]): 36.7 microg/cm3 | LC50 (Tetranychus urticae [5]): 36.9 microg/cm3

CC1(C)C2CCC1(C)C(O)C2 (centres undefined) [BORNEOL]
LC50 (Tetranychus urticae [5]): >500 microg/cm3

Cc1ccc(C(C)C)cc1 [P-CYMENE]
LC50 (Tetranychus urticae [1]): 265.2 microg/cm3 | LC50 (Tetranychus urticae [2]): 243.3 microg/cm3 | LC50 (Tetranychus urticae [3]): 238.9 microg/cm3 | LC50 (Tetranychus urticae [4]): 213.5 microg/cm3 | LC50 (Tetranychus urticae [5]): 231.4 microg/cm3

CC(C)=CCC[C@@H](C)CC=O [CITRONELLAL]
LC50 (Tetranychus urticae [1]): 34.9 microg/cm3 | LC50 (Tetranychus urticae [2]): 34.9 microg/cm3 | LC50 (Tetranychus urticae [3]): 34 microg/cm3 | LC50 (Tetranychus urticae [4]): 34.8 microg/cm3 | LC50 (Tetranychus urticae [5]): 33.9 microg/cm3

CC12CCC(CC1)C(C)(C)O2 [EUCALYPTOL]
LC50 (Tetranychus urticae [1]): 256.3 microg/cm3 | LC50 (Tetranychus urticae [2]): 263.7 microg/cm3 | LC50 (Tetranychus urticae [3]): 249 microg/cm3 | LC50 (Tetranychus urticae [4]): 298.4 microg/cm3 | LC50 (Tetranychus urticae [5]): 275 microg/cm3

C=C(C)[C@@H]1CC[C@@H](C)C[C@H]1O [ISOPULEGOL]
LC50 (Tetranychus urticae [1]): 29 microg/cm3 | LC50 (Tetranychus urticae [2]): 27.7 microg/cm3 | LC50 (Tetranychus urticae [3]): 30.1 microg/cm3 | LC50 (Tetranychus urticae [4]): 30.7 microg/cm3 | LC50 (Tetranychus urticae [5]): 30.3 microg/cm3

C=C1CC[C@H]2O[C@]2(C)CC[C@@H]2[C@@H]1CC2(C)C [(-)-CARYOPHYLLENE OXIDE]
LC50 (Tetranychus urticae [5]): >500 microg/cm3

C=C[C@]1(C)CC[C@@H](C(C)(C)O)O1 [(E)-LINALOOL OXIDE]
LC50 (Tetranychus urticae [5]): >500 microg/cm3

C=CC(=C)CCC=C(C)C [MYRCENE]
LC50 (Tetranychus urticae [1]): 384.2 microg/cm3 | LC50 (Tetranychus urticae [2]): 377.4 microg/cm3 | LC50 (Tetranychus urticae [3]): 369.3 microg/cm3 | LC50 (Tetranychus urticae [4]): 370.6 microg/cm3 | LC50 (Tetranychus urticae [5]): 349.8 microg/cm3

C=C(C)[C@H]1CC=C(C)CC1 [D-LIMONENE]
LC50 (Tetranychus urticae [1]): 277.6 microg/cm3 | LC50 (Tetranychus urticae [2]): 288.5 microg/cm3 | LC50 (Tetranychus urticae [3]): 284.3 microg/cm3 | LC50 (Tetranychus urticae [4]): 333.3 microg/cm3 | LC50 (Tetranychus urticae [5]): 246.7 microg/cm3

CC(=O)OC/C=C(\C)CCC=C(C)C [GERANYL ACETATE]
LC50 (Tetranychus urticae [1]): 24 microg/cm3 | LC50 (Tetranychus urticae [2]): 24.5 microg/cm3 | LC50 (Tetranychus urticae [3]): 26.7 microg/cm3 | LC50 (Tetranychus urticae [4]): 25.3 microg/cm3 | LC50 (Tetranychus urticae [5]): 24.5 microg/cm3

C=C/C(C)=C/CC=C(C)C [OCIMENE]
LC50 (Tetranychus urticae [1]): 281.3 microg/cm3 | LC50 (Tetranychus urticae [2]): 260.2 microg/cm3 | LC50 (Tetranychus urticae [3]): 289.6 microg/cm3 | LC50 (Tetranychus urticae [4]): 277.2 microg/cm3 | LC50 (Tetranychus urticae [5]): 255 microg/cm3

C=CC(C)(O)CCC=C(C)C (centres undefined) [LINALOOL]
LC50 (Tetranychus urticae [1]): 62.4 microg/cm3 | LC50 (Tetranychus urticae [2]): 55 microg/cm3 | LC50 (Tetranychus urticae [3]): 57.3 microg/cm3 | LC50 (Tetranychus urticae [4]): 58.9 microg/cm3 | LC50 (Tetranychus urticae [5]): 54.6 microg/cm3

CC1CCC(C(C)C)C(O)C1 (centres undefined) [MENTHOL]
LC50 (Tetranychus urticae [1]): 13.7 microg/cm3 | LC50 (Tetranychus urticae [2]): 12.9 microg/cm3 | LC50 (Tetranychus urticae [3]): 12.8 microg/cm3 | LC50 (Tetranychus urticae [4]): 13 microg/cm3 | LC50 (Tetranychus urticae [5]): 12.9 microg/cm3

C=C1CC/C=C(\C)CC[C@@H]2[C@@H]1CC2(C)C [BETA-CARYOPHYLLENE]
LC50 (Tetranychus urticae [1]): 53.4 microg/cm3 | LC50 (Tetranychus urticae [2]): 44.7 microg/cm3 | LC50 (Tetranychus urticae [3]): 47.7 microg/cm3 | LC50 (Tetranychus urticae [4]): 49.1 microg/cm3 | LC50 (Tetranychus urticae [5]): 47.6 microg/cm3

C=CCc1ccc(O)c(OC)c1 [EUGENOL]
LC50 (Tetranychus urticae [1]): 27.8 microg/cm3 | LC50 (Tetranychus urticae [2]): 31.7 microg/cm3 | LC50 (Tetranychus urticae [3]): 28.6 microg/cm3 | LC50 (Tetranychus urticae [4]): 25.9 microg/cm3 | LC50 (Tetranychus urticae [5]): 24.6 microg/cm3

CC(=O)OCCC(C)CCC=C(C)C (centres undefined) [CITRONELLYL ACETATE]
LC50 (Tetranychus urticae [1]): 12.8 microg/cm3 | LC50 (Tetranychus urticae [2]): 17.4 microg/cm3 | LC50 (Tetranychus urticae [3]): 16.5 microg/cm3 | LC50 (Tetranychus urticae [4]): 16.7 microg/cm3 | LC50 (Tetranychus urticae [5]): 16.8 microg/cm3

C=C1CC[C@@H]2[C@@H]([C@@H]3[C@H](C)CC[C@@H]13)C2(C)C [(+)-AROMADENDRENE]
LC50 (Tetranychus urticae [5]): >500 microg/cm3

CC(C)=CCC/C(C)=C/CO [GERANIOL]
LC50 (Tetranychus urticae [1]): 33.3 microg/cm3 | LC50 (Tetranychus urticae [2]): 33.2 microg/cm3 | LC50 (Tetranychus urticae [3]): 26.8 microg/cm3 | LC50 (Tetranychus urticae [4]): 32 microg/cm3 | LC50 (Tetranychus urticae [5]): 32.1 microg/cm3

CC1=CC=C(C(C)C)CC1
LC50 (Tetranychus urticae [1]): 277.5 microg/cm3 | LC50 (Tetranychus urticae [2]): 253.2 microg/cm3 | LC50 (Tetranychus urticae [3]): 263.3 microg/cm3 | LC50 (Tetranychus urticae [4]): 293.9 microg/cm3 | LC50 (Tetranychus urticae [5]): 260 microg/cm3

CC(C)=CCCC(C)CCO (centres undefined) [CITRONELLOL]
LC50 (Tetranychus urticae [1]): 26 microg/cm3 | LC50 (Tetranychus urticae [2]): 25.9 microg/cm3 | LC50 (Tetranychus urticae [3]): 21.4 microg/cm3 | LC50 (Tetranychus urticae [4]): 26.1 microg/cm3 | LC50 (Tetranychus urticae [5]): 21.7 microg/cm3

CC1=CC[C@H](C(C)C)C=C1
LC50 (Tetranychus urticae [1]): 354.7 microg/cm3 | LC50 (Tetranychus urticae [2]): 340.7 microg/cm3 | LC50 (Tetranychus urticae [3]): 360.6 microg/cm3 | LC50 (Tetranychus urticae [4]): 380.1 microg/cm3 | LC50 (Tetranychus urticae [5]): 299.7 microg/cm3
